# Laboratory results reported in publication PMC11407758, “Integrated stress response (ISR) activation and apoptosis through HRI kinase by PG3 and other p53 pathway-restoring cancer therapeutics” (Oncotarget, 2024).
# Read-outs that look alike come from different tables or passages of the source. Peptide text beside a SMILES is read from it. * marks the point of attachment. Cbz = O=C(OCc1ccccc1)*; CH2F = FC*
# How the values were obtained:
# [1] = tested on: HCT116 (R175H); experiment: Cell viability assay (CellTiterGlo), HCT116 R175H; assay type: cell-based, human
# Protocol: (§1) Figure 1 PG3 inhibits cell proliferation and growth in a p53-indepent manner. (A–E) Cell viability assay, dose response curves and IC50 value measurements in a panel of cancer cell lines and normal cells. Cells were treated with different concentrations of PG3, PG3-Oc (Oc), obatoclax (Ob), prodigiosin (P) or DMSO for 72 h. Luciferase activity was imaged by the IVIS Imaging System after treatment. Cell viability data were normalized to those of DMSO treatment control in each cell line and data analyses were performed using PRISM4 software. IC50 data are expressed as the mean ±SD (normal; n = 3).
# as §1, with “2 p53-dependent inhibition of” for “1 PG3 inhibits”, “is only observed at specific concentrations. (A–J)” for “and growth in a p53-indepent manner. (A–E)”, “ZMC1, CP-313908, APR-246, Ellipticine, Nutalin-3a” for “PG3, PG3-Oc (Oc), obatoclax (Ob), prodigiosin (P)”
# (§2) Cells were seeded in 96-well plates (6 × 10^3 cells/well). Cells were treated with different concentrations of compounds or dimethyl sulfoxide (DMSO) as a control for 72 hours. The cell viability was assessed by CellTiterGlo bioluminescent cell viability assay (Promega), following the manufacturer’s protocol. Bioluminescence imaging was measured using the IVIS imager. The percentage of cell viability (mean ± SEM) at each dose was calculated against the respective DMSO control. The IC50 values were determined from the sigmoidal dose-response curves using GraphPad Prism.
# [2] = tested on: PUMA; experiment: Western blot, PUMA induction; assay type: cell-based, human
# Protocol: (§3) Figure 4 Activation of ATF4 and up-regulation of typical p53 target genes. (A–E) Western blot analysis of p53 protein levels and upregulation of ATF4, PUMA, DR5 and p21. Cells were treated for 24 h with indicated compounds, concentrations and cell lines. Abbreviations: S.E.: Short exposure; L.E.: Long exposure.
# (§4) After treatment, protein lysates were collected for Western blot analysis. A total of 15 μg of protein was used for SDS-PAGE. After primary and secondary antibody incubations, the signal was detected by a chemiluminescence detection kit, imaged by Syngene (Imgen Technologies). Antibodies for NAG-1 (GDF15) and P53 were from Santa Cruz Biotechnology; for caspase 8, cleaved caspase 8, caspase 9, caspase 3, cleavage PARP, eIF2α, p-eIF2α (Ser51), CHOP, ATF4, DR5, and PUMA were from Cell Signaling Technology. Noxa and p21 were from Calbiochem. Ran was from BD Biosciences.
# [3] = tested on: HFF-1 (human foreskin fibroblast cell with wild-type p53); experiment: Cell viability assay (CellTiterGlo), HFF-1 normal cells; assay type: cell-based; details: 72 h, CellTiterGlo, normal cells; read-out: IC50 values, HFF-l (WT)
# Protocol: as §1
# as §1, with “2 p53-dependent inhibition of” for “1 PG3 inhibits”, “is only observed at specific concentrations. (A–J)” for “and growth in a p53-indepent manner. (A–E)”, “ZMC1, CP-313908, APR-246, Ellipticine, Nutalin-3a” for “PG3, PG3-Oc (Oc), obatoclax (Ob), prodigiosin (P)”
# as §2
# [4] = tested on: p21; experiment: Western blot, p21 induction; assay type: cell-based, human
# Protocol: as §3, §4
# [5] = tested on: MRC5 (human lung fibroblast cell with wild-type p53); experiment: Cell viability assay (CellTiterGlo), MRC5 normal cells; assay type: cell-based; details: 72 h, read-out: IC50 values, MRC5 (WT)
# Protocol: as §1
# as §1, with “2 p53-dependent inhibition of” for “1 PG3 inhibits”, “is only observed at specific concentrations. (A–J)” for “and growth in a p53-indepent manner. (A–E)”, “ZMC1, CP-313908, APR-246, Ellipticine, Nutalin-3a” for “PG3, PG3-Oc (Oc), obatoclax (Ob), prodigiosin (P)”
# as §2
# [6] = tested on: p53 protein; experiment: Western blot, p53 protein levels; assay type: cell-based, human
# Protocol: Cells were treated for 24 h with indicated compounds, concentrations and cell lines. Abbreviations: S.E.: Short exposure; L.E.: Long exposure.
# as §4
# [7] = tested on: SW480 cells carrying a p53-responsive luciferase reporter; experiment: p53-responsive reporter assay; assay type: cell-based, human; details: 30 μM, 15 hour time point
# Protocol: SW480 cells carrying a p53-responsive luciferase reporter were used for assay of functional restoration of mutant p53. Cells were seeded in 96-well plates (5 × 10^4 cells/well) and were treated with compounds indicated for 6 and 15 h, respectively. Then, D-luciferin was added to each well with final concentration 100 μg/mL, and cells were imaged by using an IVIS Imaging System to detect luciferase activity.
# p53-mutant SW480 human colon cancer cells, stably expressing a p53-responsive luciferase reporter, were used to assay functional restoration p53 pathway-dependent transcription in mutant p53-expressing tumor cells. Cells were seeded in 96-well plates (5 × 10^4 cells/well) and were treated with small-molecule compounds for 6 and 15 h, respectively. Then, D-luciferin was added to each well at a final concentration of 100 μg/mL, and cells were imaged by using an IVIS Imaging System (Xenogen) to detect luciferase activity.
# [8] = tested on: DR5; experiment: Western blot, DR5 induction; assay type: cell-based, human
# Protocol: as §3, §4
# [9] = tested on: HT29 (R273H); experiment: Cell viability assay (CellTiterGlo), HT29; assay type: cell-based, human
# Protocol: as §1
# as §1, with “2 p53-dependent inhibition of” for “1 PG3 inhibits”, “is only observed at specific concentrations. (A–J)” for “and growth in a p53-indepent manner. (A–E)”, “ZMC1, CP-313908, APR-246, Ellipticine, Nutalin-3a” for “PG3, PG3-Oc (Oc), obatoclax (Ob), prodigiosin (P)”
# as §2
# [10] = tested on: ATF4; experiment: Western blot, ATF4 induction; assay type: cell-based, human; details: 24 h
# Protocol: as §3, §4
# [11] = tested on: GCN2, PKR, eIF2α, ATF4, CHOP in HT29 cells; experiment: Western blot, ISR kinases / eIF2α / ATF4 / CHOP; assay type: cell-based, human
# Protocol: Figure 7 PG3 induces upregulation of ATF4 through ISR via HRI. (A) HT29 cells were treated with PG3, GSK2606414, TG and ONC201 respectively, or co-treatment with PG3/GSK2606414, PG3/TG, and PG3/ONC201 for 15 h. (B) MEF, MEF^PERK−/− and MEF^GCN2−/− cells were treated with PG3 and ONC201 for 16 hours. (C) HT29 cells were transfected with siControl, siPKR, siHRI and siPKR/siHRI for 24 hours and then treated with PG3 for 16 hours. (D) HCT116 p53^−/− cells were transfected with siControl and siHRI for 24 hours and then treated with PG3 for 16 hours. (E) HCT116 p53^−/− cells were treated with PG3 and ONC201 for indicated times. (F) PANC1-sgCtrl, -sgHRI and -sgPKR cell lines were treated with PG3 and imipridones (ONC201, ONC206 and ONC212) for 16 hours. Western blot was performed using indicated antibodies. (G) Proposed model of PG3-induced cell apoptosis through HRI/ATF4/PUMA axis. Abbreviation: L.E.: Long exposure.
# as §4
# (§5) Supplementary Figure 2: ROS and NO are not responsible for PG3-induced HRI activation. (A, B) cells were pre-treated
# (§6) with ZnPP, L-NMMA, SA and NAC for 2 hours respectively, and then ONC201 or PG3 was added to the medium for 24 hour treatment.
# (§7) Western blot was performed using indicated antibodies.
# (§8) (1 picture or pasted object on this page, not shown here)
# [12] = tested on: HRI; design: method as in PMID 22827572; details: cited from earlier work
# [13] = tested on: ALAS1, UROD; experiment: Western blot, heme biosynthesis enzymes; assay type: cell-based, human
# Protocol: Figure 8 Inhibition of heme biosynthesis leads to upregulation of ATF4. (A) HT29 cells were treated with SA and ONC201 for 20 hours. Western blotting was performed using the indicated antibodies. (B) HT29 cells were transfected with siCtrl, siHRI, siClpX, siALAS1, siClpX/siALAS1 and siClpX/siALAS1/siHRI for 48 hours. (C) HT29 cells were transfected with siCtrl, siLonP1, siClpP for 24 or 48 hours respectively, and then treated with ONC201 for 24 hours. (D) Proposed model of ONC201-induced cell apoptosis through ClpP/ALAS1/HRI/ATF4 axis. (E, F) Silencing of ClpP in HCT116 p53^−/− and MDA-MB-468 cells and then treated with PG3, PG3-Oc and ONC201. Western blot was performed using indicated antibodies.
# as §4, §5, §6, §7, §8
# [14] = tested on: HCT116 (wild-type), SW480 (R273H, P309S), and DLD1 (S241F); experiment: Cell viability assay in colorectal cancer cell lines (Figure 1E); assay type: cell-based, human; details: 72 h
# Protocol: as §1, §2
# [15] = tested on: cleaved caspase-8, -3, cleaved PARP and PUMA in HT29, SW480 and HCT116 p53−/− cells; experiment: Western blot, apoptosis markers in PG3-treated cells; assay type: cell-based, human; details: co-treatment with PG3; HT29, SW480, HCT116 p53–/–
# Protocol: Figure 5 PG3 induces apoptosis in p53-null and p53-mutant cancer cell lines. (A–E) Dose-response and time-course analysis of cleavage of caspase-8, -3, cleaved PARP and PUMA in PG3-treated HT29, SW480 and HCT116 p53^−/− cells by western blot using the indicated antibodies. (F–H) Flowcytometry analysis of cell death. (I) HT29 and HT29-PUMA^−/− and (J) SW480 cells were co-treated with PG3 and pan-caspase inhibitor Z-VAD-fmk for 48 h. (K) HCT116 p53^−/− cell were co-treated with PG3 and Z-VAD-fmk for 24 hours.
# as §4
compound,measurement,setting,value
COc1ccc(/C=C/c2nc(NCCCN(C)C)c3ccccc3n2)cc1 [CP-31398],IC50,"[1]; 72 h, CellTiterGlo",9.58 µM
same,selective inhibition among HCT116 isogenic cell lines,"[1]; HCT116-R175H compared to HCT116 (WT) and HCT116 p53–/–, 10 μM",selective inhibition
same,upregulation of PUMA,"[2]; HCT116 (p53 wild-type), 24 h",induces PUMA expression
same,upregulation of PUMA,"[2]; HCT116 p53-R175H, 24 h",barely
same,upregulation of PUMA,"[2]; HCT116 p53–/–, 24 h",barely
same,upregulation of PUMA,"[2]; HT29, 24 h",induces PUMA expression
same,upregulation of PUMA,"[2]; TOV-112D, 24 h",barely
same,IC50,[3],7.92 µM
same,upregulation of p21,"[4]; HCT116 (p53 wild-type), 24 h",significantly
same,upregulation of p21,"[4]; HCT116 p53-R175H, 24 h",barely
same,upregulation of p21,"[4]; HCT116 p53–/–, 24 h",barely
same,upregulation of p21,"[4]; HT29, 24 h",significantly
same,upregulation of p21,"[4]; TOV-112D, 24 h",upregulates p21 strongly
same,IC50,[5],5.92 µM
same,wild-type p53 protein level,"[6]; HCT116, 24 h",marginal stabilization
same,endogenous mutant p53 R273H protein level,"[6]; HT29, 24 h",stabilizes
same,endogenous mutant p53 R175H protein level,"[6]; TOV-112D, 24 h",marginally destabilizes
same,exogenous mutant p53 R175H protein level,"[6]; engineered HCT116-R175H cells, 24 h",no effects
same,p53-responsive reporter activity,[7],able to activate the reporter
same,upregulation of DR5,"[8]; HCT116 (p53 wild-type), 24 h",does not upregulate DR5
same,upregulation of DR5,"[8]; HCT116 p53-R175H, 24 h",does not upregulate DR5
same,upregulation of DR5,"[8]; HCT116 p53–/–, 24 h",does not upregulate DR5
same,upregulation of DR5,"[8]; HT29, 24 h",mildly upregulates DR5
same,upregulation of DR5,"[8]; TOV-112D, 24 h",upregulates DR5 in a comparable manner to PG3 and PG3-Oc
same,IC50,"[9]; 72 h, CellTiterGlo",0.647 µM
same,inhibition of cell viability,"[9]; HT29, 0.04 μM",potently inhibited
same,fold more potency in HT29 than in HFF-1,[9]; HT29 vs HFF-1,12.2 fold
same,fold more potency in HT29 than in MRC5,[9]; HT29 vs MRC5,9.1 fold
same,upregulation of ATF4,"[10]; HT29 and TOV-112D, compared to PG3 and PG3-Oc",more potently induces upregulation of ATF4
same,upregulation of ATF4,[10]; three isogenic HCT116 cell lines,does not upregulate ATF4
"Cn1cc(-c2ccc3c(c2)CCN3C(=O)Cc2cccc(C(F)(F)F)c2)c2c(N)ncnc21 [GSK2606414, 7-methyl-5-(1-{[3-(trifluoromethyl)phenyl]acetyl}-2,3-dihydro-1H-indol-5-yl)-7H-pyrrolo[2,3-d]pyrimidin-4-amine]",effect on ONC201-induced upregulation of ATF4 and CHOP,"[11]; HT29, co-treatment with ONC201",significantly attenuates
same,"effect on PG3-induced eIF2α phosphorylation, ATF4 and CHOP upregulation","[11]; HT29, co-treatment with PG3, 15 h",does not block
same,effect on TG-induced upregulation of ATF4 and CHOP,"[11]; HT29, co-treatment with thapsigargin",abolishes
same,IC50,[12],0.42 µM
Cc1ccccc1CN1C(=O)C2=C(CCN(Cc3ccccc3)C2)N2CCN=C12 [ONC201],phosphorylation of GCN2 and PKR,[11],does not increase phosphorylation
same,ALAS1 protein level,[13],potent downregulation and inhibition of ALAS1
same,UROD protein levels,[13],do not have any effects
COC1=CC(c2cc3ccccc3[nH]2)=N/C1=C\c1[nH]c(C)cc1C [Obatoclax],"potency compared among PG3-Oc, prodigiosin and Obatoclax",[14],same potency
"CC(=O)CC(=O)CCC(=O)O [SA, Succinylacetone]","eIF2α phosphorylation, ATF4 and CHOP","[11]; HT29, 20 hours, comparable to ONC201",eIF2α phosphorylation and upregulation of ATF4 and CHOP
same,ALAS1 protein level,"[13]; HT29, 20 hours",upregulation of ALAS1
COC(=O)C[C@H](NC(=O)[C@H](C)NC(=O)[C@@H](NC(=O)OCc1ccccc1)C(C)C)C(=O)CF [Z-VAD-FMK] (Cbz-Val-Ala-Asp(OMe)-CH2F),"effect on PG3-induced cleavage of PARP, caspase-8 and -3",[15],"potently inhibits the cleavage of PARP, caspase-8, and -3"
prodigiosin,"potency compared among PG3-Oc, prodigiosin and Obatoclax",[14],same potency
